According to PMC10299677, “Fluorinated Benzofuran and Dihydrobenzofuran as Anti-Inflammatory and Potential Anticancer Agents” (International Journal of Molecular Sciences, 2023):
“Also recorded” adds a separate entry of the source.

How the values were obtained:
COX-2 protein expression = COX-2 protein expression in LPS-treated macrophages (Western blot); type: cell-based, C57BL/6J mice; details: 10 µM for compounds 1, 7, 9, 50 µM for others, LPS 24 h
Description: (§1) Figure 4 Effects of the fluorinated benzofuran and dihydrobenzofuran on COX-2 and NOS2 protein expressions. COX-2 and NOS2 protein expressions were assessed in macrophages incubated with only 10 µM for compounds 1, 7, and 9, and 50 µM for the other compounds, for 30 min prior to the addition of 10 ng/mL LPS for 24 h. β-actin was used as a loading control, and densitometric analysis was performed using ImageJ software (NIH, MA). Data are expressed as fold of LPS-treated macrophages and represented as mean ± SEM of 4 different experiments; * p < 0.05 versus LPS (one-way ANOVA followed by Dunnett’s test).
(§2) Macrophages were incubated with the compounds for 30 min prior to the addition of 10 ng/mL LPS for 24 h. Protein levels for COX-2 and NOS2 were detected in LPS-stimulated macrophages. As previously described, 10 µg of total protein was assessed. The primary antibodies were developed and characterized as previously described: for COX-2, mouse monoclonal antibody anti-COX-2 (clone COX-214, 1/5000); for NOS2, rabbit polyclonal antibody anti-NOS2 (dilution1/2000 [33]). Antibodies anti-phospho-NF-κB (3033S), phospho-IκBα (9246S), and total IκBα (4814S) were from Cell Signaling Technologies (Danvers, MA, USA). Total NF-κB C-20 (sc-372) was from Santa Cruz Biotechnologies (Dallas, TX, USA), and mouse β-actin (dilution 1/10,000) (Sigma-Aldrich, A5441). Clarity™ western ECL substrate (Bio-Rad Laboratories 10-5061) was used according to the manufacturer’s instructions to reveal positive bands visualized using Bio-Rad ChemiDoc. For Bcl-2 and cleaved PARP-1, HCT116 cells were plated in 6-well plates (200,000 cells per well) for 24 h, and treated with compounds 1 and 2 at 10, 25, and 50 µM for 72 h. Supernatants and cells were collected and lysed using RIPA lysis buffer containing inhibitors of protease. Western blot of Bcl-2 and cleaved PARP-1 was performed using 25 µg of total protein with a rabbit polyclonal antibody anti-Bcl-2 (1/500) (Santa Cruz Biotechnology, sc-492), rabbit polyclonal antibody anti-PARP-1 (1/1000) (Santa Cruz Biotechnology, sc-7150), and mouse anti-β-actin (dilution 1/10,000) (Sigma-Aldrich, A5441).
(§3) Densitometric analyses were performed using ImageJ software (NIH, MA, USA). The ratio of the different analyzed bands to β-actin was determined and data are represented as fold change compared to the LPS-treated cells. Percentage of viable cells for proliferation assay was determined as percentage to control (non-treated cells). For TUNEL assay, apoptotic cells were quantified, and results were expressed as percentage to positive cells (cleaved DNA) compared to control (non-treated cells). Statistical analysis was performed using one-way ANOVA, followed by Dunnett’s multiple comparisons test using GraphPad Prism software. Differences were considered significant when p < 0.05.

[1] = tested on: NF-κB or Iκ-Bα phosphorylation; experiment: NF-κB and IκBα phosphorylation in LPS-treated macrophages (Western blot); type: cell-based, C57BL/6J mice; details: compounds 30 min prior to 1 h LPS
Description: as §2
F i g u re S4: Phosphorylation of NF-κB and IκBα kinetics in LPS-treated macrophages. (A) Kinetics of the phosphorylation of NF-κB and IκBα in macrophages. Cells were treated with 10 ng/mL LPS for different time points and protein expression was assessed by western blot. We determine that 1 hour incubation with LPS is efficient for the phosphorylation of NF-κB and IκBα phosphorylation; (B) Macrophages were treated with the tested compounds for 30 minutes prior to 1 hour-treatment with LPS. β-actin was used as a loading control and densitometric analysis was done ImageJ Software (NIH, MA). Data are ex pressed as fold of LPS-treated macrophages and represented as mean ± S.E.M. of 3 different experiments, *p<0.05 versus LPS (One-w a y Anova followed by the Dunnett’s test). […]

IL-6 mRNA = experiment: LPS-dependent IL-6 mRNA in THP-1-derived macrophages (RT-PCR); type: cell-based, human; details: 50 µM, 10 ng/ml LPS 6 h
Description: F i g u re S3: Eff ect of benzofuran compounds on the lev els of LP S -dependent mRNA of CCL2 and IL-6 in THP-1 –deriv ed macrophages. Human-monoc yti c cell l ine-THP-1 wer e treat ed with PMA (25 nM for 48 hours) th en in cub ated with 50 μM compounds for 30 minutes b efo re the addit ion of 10 ng/ml LP S fo r 6 hours. Gene ex pression of IL6 and CCL2 were measur ed by RT-PCR and the v alu es wer e nor mal ized to GAPDH. Results represent means ± SEM by one way ANOVA followed by Dunnett test.

PGE2 = PGE2 release in LPS-treated macrophages (BMDM); type: cell-based, C57BL/6J mice; details: for blocking of PGE2 formation in response to LPS: 50 µM; for blocking of PGE2 formation in response to LPS / effect on PGE2 production in response to LPS: 10 ng/mL LPS 24 h; for IC50: compounds 30 min prior to 10 ng/mL LPS for 24 h; for effect on PGE2 production in response to LPS: 10 µM for compounds 1, 7, 9, 50 µM for others
Description: C57BL/6J (10–15 weeks old) male mice were obtained from the animal care facility at the American University of Beirut. All animal procedures were performed following the recommendations of the IACUC (Institutional Animal Care and Use Committee approval 16-09-M379). BMDMs were prepared and characterized as described previously by our group. BMDMs were isolated from C57BL/6J mice by flushing the femur and tibia with RPMI-1640 culture media (Sigma-Aldrich R7388), and cells were collected and centrifuged at 300× g for 5 min. The supernatant was discarded, and the pellet was resuspended in 2 mL red blood lysis 10% (Sigma-Aldrich R7767) medium in PBS and incubated for 5 min at room temperature. After diluting the suspension of cells with 5 mL of RPMI containing 10% FBS and 1% penicillin–streptomycin, cells were centrifuged at 300× g for 5 min, and the cell pellet was resuspended in RPMI media containing 10% FBS supplemented with 15% L929-conditioned medium containing macrophage-colony stimulating factor (M-CSF1) and plated on […]. Cells were allowed to proliferate and differentiate for 5–6 days. Cells were harvested, washed, and allowed to adhere overnight in RPMI containing 10% FBS for treatment. Cells were previously characterized by flow cytometry as macrophages using this method. […] Cells were plated at 0.8 × 10^6 cells per 3.8 cm^2 well [27].
BMDMs were then treated with different concentrations of the benzofuran and dihydrobenzofuran derivatives for 30 min prior to the addition of 10 ng/mL LPS for 24 h. […] The supernatants were assessed for IL-6, PGE2, CCL2, and nitrite, the stable derivative of NO, as described previously.
IL-6, CCL2, nitrite (for NO), and PGE2 concentrations from 3–5 independent experiments were expressed as percentage of LPS alone and as mean ± SEM. COX activity was determined as percentage of PGE2 produced from exogenous arachidonic acid. Curve fitting and calculation of IC50 values were performed using GraphPad Prism (version 9.5.1 Software, La Jolla, CA, USA).

NOS2 protein expression = NOS2 protein expression in LPS-treated macrophages (Western blot); type: cell-based, C57BL/6J mice; details: 50 µM, LPS 24 h
Description: as §1, §2
as §3, with “Differences were considered significant when p < 0.05.” left out

| IC50 (PGE2; Mus musculus, Macrophage) | IC50 (PGE2) | SMILES | effect on LPS-induced COX-2 protein expression (COX-2 protein expression) | effect on NF-κB or Iκ-Bα phosphorylation induced by LPS [1] | effect on IL-6 mRNA levels (IL-6 mRNA) | blocking of PGE2 formation in response to LPS (PGE2) | effect on LPS-dependent NOS2 protein expression (NOS2 protein expression) | effect on PGE2 production in response to LPS (PGE2) |
| --- | --- | --- | --- | --- | --- | --- | --- | --- |
|  |  | COC(=O)/C=C1/Oc2ccc(Br)cc2C1(F)F [Compound 1] | loss of this inhibitory effect | did not modify | decreased significantly |  |  |  |
| 1920 nM | 1910 nM | O=C(O)/C=C1/Oc2ccc(Br)cc2C1(F)F [Compound 2] | significantly decreased | did not modify | decreased significantly | more than 50% | inhibition |  |
| 1480 nM |  | O=C(O)/C=C1\Oc2ccc(Br)cc2C1(F)F [Compound 3] |  | did not modify | to a lesser extent | more than 50% | inhibition |  |
| 1920 nM |  | O=C(O)Cc1oc2ccc(-c3ccccc3)cc2c1F [Compound 5] | no effect |  |  |  | no effect | very potent inhibitors |
| 1120 nM |  | C=C(C)c1ccc2oc(CC(=O)O)c(F)c2c1 [Compound 6] | no effect |  |  |  | no effect | very potent inhibitors |
| 20500 nM |  | COC(=O)CC1(O)Oc2ccc(Br)cc2C1(F)F (centres unmarked) [Compound 8] |  | did not modify |  |  |  | inhibited partial; also recorded: partial inhibition |
